Experimental data taken from patent US12383567B2, “Use of cannabinoids in the treatment of epilepsy” (Jazz Pharmaceuticals Research UK Limited, priority 2017, dated 2025).

Assay: Drug-drug interaction between cannabidiol (CBD) and tacrolimus in an epilepsy patient (clinical trial, open label phase)
Format: in vivo, human
Method: The patient was a person with refractory epilepsy receiving the immunosuppressant drug tacrolimus for interstitial nephritis.
The patient had been stable on tacrolimus at a dose of 5 mg twice per day for a year prior to entry into a clinical trial on the use of CBD to treat childhood-onset epilepsy. At the time of entry into the study their blood level of tacrolimus was between 3.9 and 8.4 ng/mL.
The patient was initially randomized to the sesame oil placebo arm of the trial, during this phase there was no change in the levels of tacrolimus or serum creatine.
The dose of tacrolimus was reduced repeatedly while receiving CBD as described in FIG. 1. A dose of 0.5 mg twice per day (a 10-fold reduction) was finally reached.

[1] = during the time the subject was taking CBD with tacrolimus

C=C(C)[C@@H]1CCC(C)=C[C@H]1c1c(O)cc(CCCCC)cc1O [CBD, Cannabidiol]
blood urea nitrogen (BUN) change [1]: significant increase
serum creatine levels change [1]: significant increase
tacrolimus toxicity (open label phase, receiving CBD concurrently with tacrolimus): signs of tacrolimus toxicity
